Results: patent publication US20150273088A1 (Board of Regents, The University of Texas System, priority 2014, published 2015)

Experiments:
[1] = test system: HT1080 cells (endogenous IDH1 R132C); experiment: 2HG fluorimetric assay / high-throughput screen, secreted 2HG in media; assay type: cell-based, human; conditions: for Secreted (extracellular) 2HG: HT1080 cells, 48 hours, fluorescent assay, normalized to viability; for Viability in high-throughput screen (Alamar Blue) / 2HG in high-throughput screen: HT1080, 48 hours; for 2HG in high-throughput screen: screen hits top left quadrant
Description: 2HG fluorimetric assay. N-terminal 6×-His tagged PHGDH was expressed and purified from chemically competent BL-21 E. coli using Ni-NTA agarose (Qiagen) (Grant et al., 1999). Purified protein was then dialyzed in 40 mM KPO4 buffer at 4° C. overnight. Conditioned culture media (DMEM or aMEM) containing 2HG was neutralized with 60 mM HCL for 10 minutes followed by 60 mM Tris base. A 20 μL aliquot of neutralized conditioned media was then mixed with 90 μL of optimized assay reaction mix consisting of 5 μg purified PHGDH enzyme, 12.5 μM resazurin (Sigma-Aldrich), 0.125 U/ml diaphorase (Sigma-Aldrich), 1 mM NAD (Sigma-Aldrich), 40 mM Tris-HCl pH 8.8, and incubated for 90 minutes in a 96-well plate. Resorufin fluorescence was then quantified using a FLUOstar™ OPTIMA fluorescence plate reader (BMG Labtech) with excitation and emission peaks of 544 nm and 590 nm, respectively. Measurements were background subtracted (neutralized fresh media) and normalized either to total protein or viability as measured by Alamar Blue (Naik et al., 2009).
High-throughput screening. Screening was carried out using the Beckman Coulter (Fullerton, Calif.) Core Robotics system, including an FX liquid handler, controlled by the Sagian graphical method development tool (SAMI scheduling software). The Institute of Chemistry and Cell Biology (ICCB) Known Bioactives Library (Enzo Lifescience, BML-2840-0100) was diluted 1:200 in αMEM and 50 μL were added to pre-plated HT1080 cells. After 48 hours of incubation, media was removed and 2HG in the media was measured using the fluorimetric assay. Fresh 2HG fluorimetric assay reaction mix was prepared immediately before assaying each screen plate to limit background modulation. Cell viability was determined using Alamar Blue, as described previously (Naik et al., 2009).
To identify screen hits and account for differences in compound toxicity, 2HG fluorescence was first median-centered around DMSO treatment controls within each screen plate. 2HG fluorescence was then plotted against viability such that a correlation between the two measurements could be visualized. A linear fit and 95% predictive interval (P.I.) were then determined and plotted using GraphPad Prism (GraphPad Software).

HT1080 cells = experiment: GC-MS quantification of 2HG and upstream metabolites in HT1080 cells; assay type: cell-based, human; conditions: for Cellular 3-phosphoglycerate (3PG) level: HT1080, 300 μM Zaprinast or 10 μM BPTES
Description: (§1) GC-MS analysis. Metabolite extraction from cultured cells was performed as described previously by Figueroa et al. (2010). Briefly, cells were rinsed in ice cold PBS and rapidly quenched with 80% methanol spiked with 3-hydroxy-1,5-pentanedioic-2,2,3,4,4-d5 acid (CDN Isotopes, Quebec Canada) as an internal standard. Extracts were then incubated at −80° C. for 20 minutes, sonicated on ice, centrifuged at 14,000×g for 20 minutes at 4° C. to clear precipitate proteins, and supernatants transferred to vials for drying under N2. Derivatizing reagent (MSTFA (N-methyl-N-(trimethylsilyl)trifluoroacetamide):pyridine:acetonitrile 1:1:2) was added to the vials, which were then heated at 70° C. for 15 minutes.
(§2) Derivatized samples were analyzed on an Agilent 7890A gas chromatograph interfaced to an Agilent 5975C mass spectrometer. The GC column used for the study was a HP-5MS (30 m, 0.25 mm i.d., 0.25 μm film coating). A linear temperature gradient was used. The initial temperature of 80° C. was held for 2 minute and increased to 300° C. at 10° C./minute. The temperature was held at 300° C. for 2 minutes. The samples were run by electron ionization (EI) and the source temperature, electron energy, and emission current were 200° C., 70 eV, and 300 μA, respectively. The injector and transfer line temperatures were 250° C. 3-Hydroxy-1,5-pentanedioic-2,2,3,4,4-d5 acid was used as the internal standard in SIM mode for quantitation of 2-hydroxyglutaric acid. Quantitation was carried out by monitoring the ions at m/z 347 (glutamine and αKG), 348 (glutamate), 349 (2-hydroxyglutaric acid), and 354 (3-hydroxy-1,5-pentanedioic-2,2,3,4,4-d5).

[2] = test system: D54 glioblastoma cells expressing IDH1 R132H; conditions: cited from earlier work
[3] = biological target: T1, purified, full length, human GLS1 (Homo sapiens, UniProt O94925); experiment: Glutaminase assay (two-step, purified enzyme); assay type: biochemical
T1 construct: 6xHis (N); made in house; host or cells: E. coli BL-21
T1 sequence (O94925 55-669): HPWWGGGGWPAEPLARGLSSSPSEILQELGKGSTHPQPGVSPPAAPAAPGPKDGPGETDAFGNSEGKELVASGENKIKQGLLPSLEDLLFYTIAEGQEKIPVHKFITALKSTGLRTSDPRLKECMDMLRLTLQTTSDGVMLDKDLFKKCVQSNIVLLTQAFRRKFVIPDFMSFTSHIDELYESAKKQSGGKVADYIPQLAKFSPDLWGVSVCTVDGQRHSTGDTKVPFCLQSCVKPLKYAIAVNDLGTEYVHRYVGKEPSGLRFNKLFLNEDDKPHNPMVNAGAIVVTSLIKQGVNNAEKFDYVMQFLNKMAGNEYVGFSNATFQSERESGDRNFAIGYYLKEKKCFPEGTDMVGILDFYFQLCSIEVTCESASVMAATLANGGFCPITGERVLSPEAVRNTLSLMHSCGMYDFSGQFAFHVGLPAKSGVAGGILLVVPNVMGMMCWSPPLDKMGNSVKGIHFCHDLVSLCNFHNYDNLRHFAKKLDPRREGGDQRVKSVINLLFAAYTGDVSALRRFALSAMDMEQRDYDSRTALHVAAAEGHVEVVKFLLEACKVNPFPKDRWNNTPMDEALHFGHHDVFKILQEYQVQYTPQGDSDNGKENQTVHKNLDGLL
Description: Glutaminase assay. N-terminal 6×-His tagged GLS1 was expressed and purified from chemically competent BL-21 E. coli using Ni-NTA agarose beads (Qiagen). Purified protein was then dialyzed in a 50 mM Tris-phosphate buffer containing 1 mM dithiothreitol at 4° C. overnight. A previously described two-step assay was used to measure glutaminase activity (Kenny et al., 2003). […] […] […] For the second step of the assay, 20 μL of completed and quenched initial reaction were transferred to a new plate and 200 μL of secondary reaction mix containing 0.4 mg bovine liver glutamate dehydrogenase (Sigma-Aldrich), 0.09 M Tris-acetate (pH 9.4), 0.2 M hydrazine, 0.25 mM ADP, and 2 mM NAD was added. Samples were incubated for 40 minutes at room temperature and absorbance of NADH (340 nm) was measured using a microplate spectrophotometer.

[4] = test system: NHA cells ectopically expressing R132H IDH1; experiment: GC-MS quantification of 2HG and upstream metabolites in NHA cells expressing IDH1 R132H; assay type: cell-based, human; conditions: 48 hours
Description: as §1
as §2, with “The temperature was held at 300° C. for 2 minutes. The samples were run by electron ionization (EI) and the source temperature, electron energy, and emission current were 200° C., 70 eV, and 300 μA, respectively. The injector and transfer line temperatures were 250° C.” left out

[5] = test system: NHA cells expressing IDH1 R132H or wild type IDH1; experiment: Histone lysine methylation by Western blot in immortalized NHA cells; assay type: cell-based, human
Description: Histone extraction and Western blot analysis. For extraction of total cellular protein, cells were lysed in RIPA buffer (150 mM NaCl, 50 mM Tris, 5 mM EDTA, 1% NP-40, 0.1% SDS, 0.5% sodium deoxycholate, pH 7.4), supplemented with protease inhibitor cocktail (Roche), sodium orthovanadate (1 mM), and PMSF (1 mM). Whole-cell lysates were normalized for protein content by BCA assay (Pierce). Histone extraction was performed using an EpiQuik™ Total Histone Extraction Kit (Epigentek) and extracted protein was quantified using a Bradford assay.
Proteins were resolved by SDS-PAGE, transferred to a PVDF membrane and probed with the following antibodies: IDH1 (Origene, TA500610), 6× His (Abcam, ab1187), H3K9Me2 (Cell Signaling, 4658p), H3K9Me3 (Abcam, ab8898), H3K27Me3 (Millipore, 07-449), H3K79Me2 (Cell Signaling, 9757p), total H3 (Cell Signaling, 4499p), and Actin. Secondary anti-mouse and anti-rabbit horseradish peroxidase-conjugated IgG antibodies were used for detection.

[6] = test system: NHA cells expressing IDH1 R132H; experiment: Soft agar colony assay; assay type: cell-based, human; conditions: IDH1 R132H astrocytes
Description: Soft agar assay. A bottom layer of 0.6% soft agar with complete DMEM and 10% FBS was set in 6-well plates and allowed to solidify. Approximately 8,000 cells were then suspended in 0.4% soft agar and plated on top. Colonies were allowed to develop over 3-4 weeks and stained with crystal violet.

[7] = test system: PDAC cells Panc1 and MiaPaca2; experiment: GC-MS of glutamine, glutamate and αKG in PDAC cells; assay type: cell-based; conditions: 300 μM, 48 hours
Description: as §1, §2

[8] = test system: PDAC cells Panc1 and MiaPaca2; experiment: Growth of PDAC cells; assay type: cell-based
Description: (§3) Cell culture, transfection, and generation of stable cell lines. HT1080, HEK293T, Panc1, and MIA PaCa-2 cells were obtained from the American Type Culture Collection (ATCC). Normal human astrocytes (NHA) immortalized with E6/E7/hTERT were a kind gift from Dr. Russell O. Pieper (University of California, San Francisco). All cells tested negative for mycoplasma infection. HT1080 cells were authenticated by genotyping for IDH1 and were confirmed to harbor a heterozygous IDH1 R132C mutation by Sanger sequencing of genomic DNA products. The remaining cell lines were not further authenticated. HEK293T, NHA, PANC-1, and MIA Paca-2 cells were maintained with complete DMEM containing 10% fetal bovine serum (FBS) and 1% penicillin/streptomycin (P/S). HT1080 cells were maintained in αMEM containing 10% FBS and 1% P/S. Glutamine-free DMEM (Life Technologies) was supplemented with 10% FBS and 1% P/S and spiked with varying amounts of L-glutamine (Cellgro) for glutamine growth curves.

[9] = test system: PDAC cells Panc1 and MiaPaca2; experiment: ROS quantification (DCFDA); assay type: cell-based; conditions: 48 hours
Description: ROS quantification. Reactive oxygen species levels in PDAC cells were quantified using 2,7-dichlorofluorescein diacetate (DCFDA). Following 48 hours of drug treatment in a 96-well plate, cells were washed with PBS, stained for 30 minutes at 37° C. with 20 μM DCFDA, and imaged using an InCell Analyzer 1000. A 10× objective was used to collect 16 fluorescent and bright field images per well with a 10% overlap to allow image stitching. Stained cells were then quantified using the GE InCell Investigator software package with Developer Toolbox.

[10] = test system: PDAC cells Panc1 and MiaPaca2; experiment: Sensitivity to H2O2, viability by Alamar Blue; assay type: cell-based
Description: as §3

CCCc1nn(C)c2c(=O)[nH]c(-c3cc(S(=O)(=O)N4CCN(C)CC4)ccc3OCC)nc12 [Sildenafil]
Secreted (extracellular) 2HG [1]: no change

Nc1nc2c(nc(Br)n2[C@@H]2O[C@@H]3COP(=O)(O)O[C@H]3[C@H]2O)c(=O)[nH]1 [8-bromo-cGMP]
Secreted (extracellular) 2HG [1]: did not cause a reduction

O=C(Cc1ccccc1)Nc1nnc(CCSCCc2nnc(NC(=O)Cc3ccccc3)s2)s1 [BPTES]
Cellular 3-phosphoglycerate (3PG) level (HT1080 cells): did not cause an elevation | 2HG levels in D54 cells [2]: unaffected | Growth of D54 cells expressing IDH1 R132H compared to wild type IDH1 [2]: preferentially limits growth

CCCOc1ccccc1-c1nc2nn[nH]c2c(=O)[nH]1 [Zaprinast, 5-(2-propoxyphenyl)-1H-[1,2,3]triazolo[4,5-d]pyrimidin-7(4H)-one]
Mode of GLS1 inhibition ([3]; Lineweaver-Burk, with respect to glutamine): noncompetitive inhibitor | IC50 ([3]; purified human GLS1, read-out: IC50, enzymatic activity of GLS1): ~200 µM | Ki ([3]; read-out: Ki, GLS1 kinetic analysis): 220 µM | Viability in high-throughput screen (Alamar Blue) [1]: little effect on viability | 2HG in high-throughput screen [1]: reduced 2HG | Secreted (extracellular) 2HG [1]: concentration-dependent reduction | Concentration required to observe a significant reduction in 2HG ([1]; in cells): 100 to 300 µM | Cellular 3-phosphoglycerate (3PG) level (HT1080 cells): did not cause an elevation | Cellular alpha-ketoglutarate level (HT1080 cells; HT1080, 48 hours): reduced | Cellular glutamate level (HT1080 cells; HT1080, 48 hours): reduced | Intracellular 2HG by GC-MS (HT1080 cells; HT1080, 48 hours): modulated in a concentration-dependent manner | Intracellular glutamine level (HT1080 cells; HT1080, 48 hours): unaffected | Intracellular 2HG by GC-MS [4]: modulated in a concentration-dependent manner | Pattern of 2HG and upstream metabolite changes ([4]; compared with HT1080): the same pattern of metabolite level changes | Methylation levels of H3K9Me2 or H3K9Me3 ([5]; IDH1 WT expressing astrocytes, 300 μM): did not produced such a marked reduction | Histone methylation marks (H3K9Me2, H3K9Me3, H3K27Me3, H3K79Me2) ([5]; astrocytes expressing R132H IDH1): marked reduction toward baseline methylation levels | Soft agar colony formation [6]: reduced colony formation in IDH1 R132H astrocytes down to the level of vector and wild-type cells | Cellular glutamine [7]: increase | Cellular pool of glutamate [7]: significant reductions | Cellular pool of αKG [7]: significant reductions | Growth of PDAC cells ([8]; 100 μM and 300 μM Zaprinast): significantly reduced | Growth of PDAC cells with glutamate supplementation ([8]; Zaprinast with 5 mM glutamate): restoration of growth | Reactive oxygen species (DCFDA-positive cells) [9]: increase in reactive oxygen species (ROS) in a concentration-dependent manner | Sensitivity to oxidative damage after adding back glutamate ([10]; Zaprinast with 5 mM glutamate): nearly completely abolished the increased sensitivity to oxidative damage | Susceptibility to hydrogen peroxide stress versus vehicle ([10]; cells pretreated with Zaprinast): significantly more susceptible

Nc1nc2c(ncn2[C@@H]2O[C@@H]3COP(=O)(O)O[C@H]3[C@H]2O)c(=O)[nH]1 [cGMP]
Effect on GLS1 enzymatic activity ([3]; control experiment, 10 mM glutamine): no direct effect

COCc1cc(O)c(O)c(O)c1-c1c(COC)cc(O)c(O)c1O [HBDDE]
Viability in high-throughput screen (Alamar Blue) [1]: little effect on viability | 2HG in high-throughput screen [1]: reduced 2HG
